The text below walks through data of ChEMBL document CHEMBL4665844, “HDAC-Bax Multiple Ligands Enhance Bax-Dependent Apoptosis in HeLa Cells” (J Med Chem, 2020).

Active and inactive are the calls of the source. The rule behind the calls is not given here.

For one assay, the target named is Histone deacetylase. The assay can be described thus: Inhibition of HDAC in human HeLa nuclear extract using Boc-Lys(acetyl)-AMC or Boc-Lys (triflouroacetyl)-AMC as substrate preincubated for 5 mins followed by substrate addition and measured after 30 mins by fluorescence assay. In kind it is subcellular, Nucleus.
The target in assay [1] is T1, Apoptosis regulator BAX (Homo sapiens, UniProt Q07812). Description: Binding affinity to recombinant human full length His-tagged BAX expressed in Escherichia coli BL21 (DE3) cells preincubated for 30 min followed by FITC-BIM addition and measured after 20 mins by fluorescence polarization assay. On the technique in general: Polarisation of emitted light reports the rotation of a fluorescent probe.

Another assay relates to L02. Description: Cytotoxicity against human L02 cells assessed as reduction in cell viability after 48 hrs by MTT assay. In kind it is ADME, cell-based. To be noted: L02, 48 h. (In general: Formazan colour is commonly taken as a measure of viable cells.)
Assay [2] has as its system HeLa. The assay can be described thus: Antiproliferative activity against siRNA-induced BAX knock down human HeLa cells after 48 hrs by MTT assay. The format is functional, cell-based.
Assay [3] concerns HeLa. The assay can be described thus: induction of apoptosis in siRNA-induced BAX knock down human HeLa cells at 0.3 to 3 uM after 48 hr by annexin V FITC and propidium iodide staining based flow cytometric analysis. The format is functional, cell-based. To be noted: dose microM 0.3-3, time 48.0 hrs. (In flow cytometry, cells or beads pass a laser one at a time.)
The subject of assay [4] is HeLa. Description: Induction of mitochondrial membrane potential loss in human HeLa cells at 1 to 3 uM after 24 hrs by TMRE staining based fluorescence assay. In kind it is functional, cell-based. To be noted: dose microM 1-3, time 24.0 hrs.
Assay [5] deals with HeLa. The assay can be described thus: Induction of apoptosis in human HeLA cells at 3 uM after 48 hr by annexin V FITC and propidium iodide staining based flow cytometric analysis. The format is functional.
A further assay deals with Bcl-2-like protein 1 (Homo sapiens, UniProt Q07817). Description: Binding affinity to full length His-tagged Bcl-xl (unknown origin) preincubated for 30 min followed by 5-FAM Bid-BH3 addition and measured after 20 mins by fluorescence polarization assay.
In assay [6] the target is Induced myeloid leukemia cell differentiation protein Mcl-1 (Homo sapiens, UniProt Q07820). Description: Binding affinity to full length His-tagged Mcl1 (unknown origin) preincubated for 30 min followed by 5-FAM Bid-BH3 addition and measured after 20 mins by fluorescence polarization assay.
The target in assay [7] is Apoptosis regulator Bcl-2 (Homo sapiens, UniProt P10415). The assay can be described thus: Binding affinity to full length His-tagged Bcl2 (unknown origin) preincubated for 30 min followed by 5-FAM Bid-BH3 addition and measured after 20 mins by fluorescence polarization assay.
Assay [8] concerns HeLa. The assay can be described thus: Synergistic antiproliferative activity against human HeLa cells assessed as assessed as reduction in cell viability after 48 hrs in presence of SAHA by MTT assay. The format is functional, cell-based.
Assay [9] deals with HeLa. The assay can be described thus: Antiproliferative activity against human HeLa cells assessed as reduction in cell viability after 48 hrs by MTT assay. The format is functional, cell-based.
The subject of assay [10] is HeLa. The assay can be described thus: induction of apoptosis in siRNA-induced BAX knock down human HeLa cells at 3 uM after 48 hr by annexin V FITC and propidium iodide staining based flow cytometric analysis. The format is functional.
The subject of assay [11] is HeLa. The assay can be described thus: Induction of mitochondrial membrane potential loss in human HeLa cells after 24 hrs by TMRE staining based fluorescence assay. The note with it: dose microM 1-3, time 24.0 hrs. In kind it is functional, cell-based.
Assay [12] concerns HeLa. Description: Induction of apoptosis in human HeLA cells at 0.3 to 1 uM after 48 hr by annexin V FITC and propidium iodide staining based flow cytometric analysis. The format is functional, cell-based. The note with it: dose microM 0.3-1, time 48.0 hrs.
The subject of assay [13] is HeLa. Description: Induction of apoptosis in human HeLA cells at 1 uM after 48 hr by laser confocal microscopic based TUNEL assay. In kind it is functional, cell-based.
The test system of assay [14] is HeLa. Description: Induction of apoptosis in human HeLa cells assessed as formation of apoptotic bodies at 1 uM after 6 to 36 hrs by fluorescence microscopic method. The format is functional, cell-based. To be noted: time hrs 6-36.
Assay [15] concerns HeLa. The assay can be described thus: Induction of apoptosis in human HeLa cells assessed as membrane blebbing at 1 uM after 6 to 36 hrs by fluorescence microscopic method. In kind it is functional, cell-based. The note with it: time hrs 6-36.
For assay [16], the system named is HeLa. Description: Induction of apoptosis in human HeLa cells assessed as cellular shrinkage at 1 uM after 6 to 36 hrs by fluorescence microscopic method. In kind it is functional, cell-based. The note with it: time hrs 6-36.
Assay [17] deals with HeLa. Description: Potency index, ratio of IC50 for SAHA to test compound IC50 for antiproliferation activity against human HeLa cells. In kind it is functional.
Assay [18] concerns HeLa. The assay can be described thus: Potency index, ratio of IC50 for BSTA1 to test compound IC50 for antiproliferation activity against human HeLa cells. In kind it is functional.
The target in assay [19] is T1, Apoptosis regulator BAX. The assay can be described thus: Activation of BAX in human HeLa cells assessed as confirmation activation at Bax6A7 after 6 to 12 hrs by immunoprecipitation assay. In kind it is cell-based. The note with it: filed as activator, dose microM 0.3-3, time hrs 6-12.
For assay [20], the system named is HeLa. Description: Up regulation of BAX protein in human HeLa cells at 0.3 to 3 uM after 6 to 12 hrs by Western blot analysis. To be noted: dose microM 0.3-3, time hrs 6-12. In kind it is functional, cell-based.
The next assay concerns the target T2, Histone deacetylase 8 (Homo sapiens, UniProt Q9BY41).
T2 sequence (Q9BY41 whole entry): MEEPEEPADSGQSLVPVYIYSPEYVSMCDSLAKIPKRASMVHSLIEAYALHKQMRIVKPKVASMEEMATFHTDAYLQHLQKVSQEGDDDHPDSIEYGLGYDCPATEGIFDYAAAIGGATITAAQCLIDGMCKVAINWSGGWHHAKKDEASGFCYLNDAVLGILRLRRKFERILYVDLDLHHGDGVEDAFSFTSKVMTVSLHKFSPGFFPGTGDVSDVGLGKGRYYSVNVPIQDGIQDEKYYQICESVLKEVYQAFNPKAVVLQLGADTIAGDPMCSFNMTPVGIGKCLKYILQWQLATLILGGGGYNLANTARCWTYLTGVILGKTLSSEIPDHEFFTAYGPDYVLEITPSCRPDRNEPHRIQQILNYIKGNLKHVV
Description: Inhibition of HDAC8 (unknown origin) in using Boc-Lys(acetyl)-AMC or Boc-Lys (triflouroacetyl)-AMC as substrate preincubated for 5 mins followed by substrate addition and measured after 30 mins by fluorescence assay.

A further assay concerns the target Histone deacetylase 2 (Homo sapiens, UniProt Q92769). The assay can be described thus: Inhibition of HDAC2 (unknown origin) in using Boc-Lys(acetyl)-AMC or Boc-Lys (triflouroacetyl)-AMC as substrate preincubated for 5 mins followed by substrate addition and measured after 30 mins by fluorescence assay.
The target of another assay is Histone deacetylase 1 (Homo sapiens, UniProt Q13547). Description: Inhibition of HDAC1 (unknown origin) in using Boc-Lys(acetyl)-AMC or Boc-Lys (triflouroacetyl)-AMC as substrate preincubated for 5 mins followed by substrate addition and measured after 30 mins by fluorescence assay.
Chain of Histone deacetylase 1 (Q13547 whole entry): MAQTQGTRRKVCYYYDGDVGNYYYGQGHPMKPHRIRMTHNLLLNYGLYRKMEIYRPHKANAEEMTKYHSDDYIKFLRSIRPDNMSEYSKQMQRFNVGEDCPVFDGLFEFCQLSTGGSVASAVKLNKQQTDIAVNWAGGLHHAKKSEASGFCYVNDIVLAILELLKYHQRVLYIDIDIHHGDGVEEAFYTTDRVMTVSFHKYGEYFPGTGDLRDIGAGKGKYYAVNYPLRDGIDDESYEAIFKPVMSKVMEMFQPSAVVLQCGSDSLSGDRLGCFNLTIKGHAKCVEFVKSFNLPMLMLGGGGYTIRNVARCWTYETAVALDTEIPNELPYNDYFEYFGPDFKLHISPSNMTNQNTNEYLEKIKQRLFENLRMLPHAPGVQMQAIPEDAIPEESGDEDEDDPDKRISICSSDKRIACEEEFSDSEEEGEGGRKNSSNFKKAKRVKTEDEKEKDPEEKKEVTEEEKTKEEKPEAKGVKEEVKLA

T1 sequence (Q07812 whole entry): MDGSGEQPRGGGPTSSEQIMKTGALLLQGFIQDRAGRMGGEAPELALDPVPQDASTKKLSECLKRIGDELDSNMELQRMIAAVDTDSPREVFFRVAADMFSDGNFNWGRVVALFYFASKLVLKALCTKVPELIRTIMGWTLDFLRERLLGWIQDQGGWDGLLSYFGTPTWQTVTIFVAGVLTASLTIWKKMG
Chain of Induced myeloid leukemia cell differentiation protein Mcl-1 (Q07820 whole entry): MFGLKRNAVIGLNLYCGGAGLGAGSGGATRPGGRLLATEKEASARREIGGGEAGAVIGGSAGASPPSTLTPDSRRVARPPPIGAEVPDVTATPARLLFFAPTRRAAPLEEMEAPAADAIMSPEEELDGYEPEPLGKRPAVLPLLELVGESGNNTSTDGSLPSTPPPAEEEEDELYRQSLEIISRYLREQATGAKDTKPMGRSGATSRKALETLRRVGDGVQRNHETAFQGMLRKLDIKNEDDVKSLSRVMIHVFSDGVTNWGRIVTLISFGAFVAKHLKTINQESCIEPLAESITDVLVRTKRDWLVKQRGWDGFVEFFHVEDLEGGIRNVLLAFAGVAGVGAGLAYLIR
Chain of Bcl-2-like protein 1 (Q07817 whole entry): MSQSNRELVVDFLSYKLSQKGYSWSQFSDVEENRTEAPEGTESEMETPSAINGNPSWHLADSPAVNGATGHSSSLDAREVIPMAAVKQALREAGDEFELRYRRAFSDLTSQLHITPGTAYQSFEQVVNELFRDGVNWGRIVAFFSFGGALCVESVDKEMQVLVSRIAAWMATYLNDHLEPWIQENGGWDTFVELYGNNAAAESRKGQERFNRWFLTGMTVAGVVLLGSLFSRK
Chain of Apoptosis regulator Bcl-2 (P10415 whole entry): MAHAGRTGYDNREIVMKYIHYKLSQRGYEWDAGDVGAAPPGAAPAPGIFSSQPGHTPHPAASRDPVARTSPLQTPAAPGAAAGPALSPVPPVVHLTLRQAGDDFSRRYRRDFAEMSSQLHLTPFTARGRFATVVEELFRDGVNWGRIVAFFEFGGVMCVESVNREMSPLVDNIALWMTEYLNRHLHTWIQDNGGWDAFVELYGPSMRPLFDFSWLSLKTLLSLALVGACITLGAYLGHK
Chain of Histone deacetylase 2 (Q92769 whole entry): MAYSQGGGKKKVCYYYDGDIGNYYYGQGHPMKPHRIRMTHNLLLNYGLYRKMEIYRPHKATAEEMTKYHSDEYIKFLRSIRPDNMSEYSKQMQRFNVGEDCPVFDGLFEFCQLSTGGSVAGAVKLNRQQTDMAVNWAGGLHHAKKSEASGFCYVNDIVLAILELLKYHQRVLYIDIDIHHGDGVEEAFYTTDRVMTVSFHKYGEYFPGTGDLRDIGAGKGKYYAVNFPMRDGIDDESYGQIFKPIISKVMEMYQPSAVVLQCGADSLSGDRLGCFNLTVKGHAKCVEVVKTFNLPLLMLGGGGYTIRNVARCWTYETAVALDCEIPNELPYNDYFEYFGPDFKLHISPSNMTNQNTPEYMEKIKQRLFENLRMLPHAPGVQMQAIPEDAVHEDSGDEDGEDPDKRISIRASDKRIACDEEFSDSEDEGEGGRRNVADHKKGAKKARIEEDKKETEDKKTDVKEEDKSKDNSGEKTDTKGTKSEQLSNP

For `O=C(/C=C/c1ccc(CNC(=O)c2ccc(-c3csc(N4N=C(c5ccccc5)/C(=N/Nc5nccs5)C4=O)n3)cc2)cc1)NO`, the half-inhibitory concentration (IC50) (as a rule, the point on the concentration scale where inhibition reaches its midpoint) against Histone deacetylase worked out at 1341.5 nM. The EC50 (usually the concentration at which the effect is half-maximal) at Apoptosis regulator BAX [1] worked out at 2220 nM.
Regarding `O=C(/C=C/c1ccc(COc2ccc(-c3csc(N4N=C(c5ccccc5)/C(=N/Nc5nccs5)C4=O)n3)cc2)cc1)NO`, on Histone deacetylase, the IC50 is recorded as 243.7 nM. For the same compound, on Apoptosis regulator BAX [1], the EC50 amounted to 992 nM.
`O=C(O)c1ccc(-c2csc(N3N=C(c4ccccc4)/C(=N/Nc4nccs4)C3=O)n2)cc1`: at Histone deacetylase, the IC50 was > 10000 nM. The EC50 at Apoptosis regulator BAX [1] was found to be 704 nM.
For `O=C(CCCCCCOc1ccc(-c2csc(N3N=C(c4ccccc4)/C(=N/Nc4nccs4)C3=O)n2)cc1)NO` the same measures were 40.8 nM and 856 nM.
On to `O=C1/C(=N\Nc2nccs2)C(c2ccccc2)=NN1c1nc(-c2ccccc2)cs1`, for which the IC50 in the assay on L02 was 54200 nM; with HeLa [2], > 20000 nM; against Histone deacetylase, > 10000 nM; with HeLa [8] it was 810 nM; in the assay with HeLa [9] it was 11500 nM. Besides, the result in the assay on HeLa [3] was inactive. The outcome in the assay with HeLa [4] was Active. For the same compound, in the assay on HeLa [5], the Activity is on record as 19.2%. Also, the EC50 (at Bcl-2-like protein 1; in assay [6]; in [7]) was > 10000 nM each time.
In turn, `O=C(CCCCNC(=O)c1ccc(-c2csc(N3N=C(c4ccccc4)/C(=N/Nc4nccs4)C3=O)n2)cc1)NO` registered an IC50 against Histone deacetylase of 207.4 nM. Besides, the EC50 on Apoptosis regulator BAX [1] was found to be 719 nM.
The like results for `O=C(CCCCCOc1ccc(-c2csc(N3N=C(c4ccccc4)/C(=N/Nc4nccs4)C3=O)n2)cc1)NO` were, in that order, 75.8 nM and 925 nM.
For `O=C(CCCCCCCOc1ccc(-c2csc(N3N=C(c4ccccc4)/C(=N/Nc4nccs4)C3=O)n2)cc1)NO` the same measures were 135.2 nM and 532 nM.
`O=C(NO)c1ccc(CNC(=O)c2ccc(-c3csc(N4N=C(c5ccccc5)/C(=N/Nc5nccs5)C4=O)n3)cc2)cc1`: the IC50 worked out at 65200 nM in the assay on L02; 7550 nM in the assay on HeLa [2]; 1090 nM against Histone deacetylase 8; 198 nM against Histone deacetylase 2; 66 nM at Histone deacetylase 1; 62.8 nM against Histone deacetylase. In the assay on HeLa [9], the IC50 stood at 860 nM. The Activity in the assay on HeLa [10] is 14.8%; in the assay with HeLa [11] it was “Dose-dependent effect”; with HeLa [5], 60%; on Apoptosis regulator BAX [19], “Dose-dependent effect”. Besides, the outcome in the assay on HeLa [12], in the assay on HeLa [13], in the assay with HeLa [14], in the assay with HeLa [15], with HeLa [16] and with HeLa [20] was Active. Further, the “Ratio IC50” value in the assay on HeLa [17] is given as 15; in the assay with HeLa [18], 3. The EC50 on Bcl-2-like protein 1 was > 10000 nM; in assay [6], > 10000 nM; in [7], > 10000 nM; at Apoptosis regulator BAX [1], 393 nM.
Take `O=C(CCCCCNC(=O)c1ccc(-c2csc(N3N=C(c4ccccc4)/C(=N/Nc4nccs4)C3=O)n2)cc1)NO`: at Histone deacetylase, the IC50 is given as 87.5 nM. The EC50 at Apoptosis regulator BAX [1] stood at 809 nM.
At Histone deacetylase, `O=C(CCCOc1ccc(-c2csc(N3N=C(c4ccccc4)/C(=N/Nc4nccs4)C3=O)n2)cc1)NO` had an IC50 of 674.8 nM. Moreover, at Apoptosis regulator BAX [1], the half-maximal effective concentration (EC50) was 725 nM.
Compound `O=C(CCCCCCNC(=O)c1ccc(-c2csc(N3N=C(c4ccccc4)/C(=N/Nc4nccs4)C3=O)n2)cc1)NO` returned a concentration for half-maximal inhibition (IC50) at Histone deacetylase of 98.8 nM. The EC50 at Apoptosis regulator BAX [1] turned out to be 1140 nM.
As to `O=C(CCCCCCC(=O)Nc1ccccc1)NO` [VORINOSTAT], in the assay on HeLa [3], the result was inactive. The outcome with HeLa [4] and in the assay on HeLa [20] was Active. Further, the Activity with HeLa [5] amounted to 47.1%. The EC50 at Apoptosis regulator BAX [1] was > 10000 nM.
Take `O=C(NO)c1ccc(COc2ccc(-c3csc(N4N=C(c5ccccc5)/C(=N/Nc5nccs5)C4=O)n3)cc2)cc1`: the IC50 on Histone deacetylase amounted to 85 nM. On Apoptosis regulator BAX [1], the EC50 came out at 538 nM.
Turning to `O=C(CCCCOc1ccc(-c2csc(N3N=C(c4ccccc4)/C(=N/Nc4nccs4)C3=O)n2)cc1)NO`, the IC50 against Histone deacetylase was 118.5 nM. Besides, the EC50 on Apoptosis regulator BAX [1] was determined as 967 nM.
For `O=C(NO)c1ccc(-c2csc(N3N=C(c4ccccc4)/C(=N/Nc4nccs4)C3=O)n2)cc1` the same measures were 577.4 nM and 874 nM.
